Source: US7704995B2 (Exelixis, Inc., priority 2003, dated 2010)

Columns and labels:
[1] = target: T1, Chk1 (Homo sapiens, UniProt O14757); assay: Chk1 kinase assay: incorporation of γ-33P ATP into immobilized myelin basic protein; assay type: biochemical; conditions: 10 nM Chk1, 10 μM unlabeled ATP, 1 hour at room temperature; read-out: Chk1 inhibition, IC50
T1 construct: purchased Upstate Biotechnology
T1 sequence (O14757 1-476): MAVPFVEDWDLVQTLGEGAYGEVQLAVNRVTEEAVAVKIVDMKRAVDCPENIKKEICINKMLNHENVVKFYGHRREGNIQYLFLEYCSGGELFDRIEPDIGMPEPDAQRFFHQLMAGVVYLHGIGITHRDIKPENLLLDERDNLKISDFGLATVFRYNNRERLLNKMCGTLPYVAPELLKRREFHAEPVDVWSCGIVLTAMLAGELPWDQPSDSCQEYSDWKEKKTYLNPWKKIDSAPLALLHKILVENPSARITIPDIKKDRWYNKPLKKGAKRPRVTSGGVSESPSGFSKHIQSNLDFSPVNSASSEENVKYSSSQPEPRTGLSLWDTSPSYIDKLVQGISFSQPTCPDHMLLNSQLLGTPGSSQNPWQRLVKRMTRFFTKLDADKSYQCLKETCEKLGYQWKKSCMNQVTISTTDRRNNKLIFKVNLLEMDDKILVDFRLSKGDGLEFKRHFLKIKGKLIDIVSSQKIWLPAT
Procedure, shortened: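 Read-out is scintillation counting of 33P incorporated into plate-bound myelin basic protein. Chk1 runs at 10 nM enzyme with 10 μM ATP, Chk2 at 20 nM with 30 μM ATP, each for 1 hour at room temperature. Duplicate points; IC50 taken as 50% activity reduction, Ki computed from IC50.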

[2] = target: EphA2R (Homo sapiens, UniProt P29317); assay: Kinase specificity assay (33P phosphoryl transfer, LCCA or AlphaScreen); assay type: biochemical; conditions: ATP close to KM; read-out: EphA2R inhibition, IC50
EphA2R, sequence (P29317 24-976): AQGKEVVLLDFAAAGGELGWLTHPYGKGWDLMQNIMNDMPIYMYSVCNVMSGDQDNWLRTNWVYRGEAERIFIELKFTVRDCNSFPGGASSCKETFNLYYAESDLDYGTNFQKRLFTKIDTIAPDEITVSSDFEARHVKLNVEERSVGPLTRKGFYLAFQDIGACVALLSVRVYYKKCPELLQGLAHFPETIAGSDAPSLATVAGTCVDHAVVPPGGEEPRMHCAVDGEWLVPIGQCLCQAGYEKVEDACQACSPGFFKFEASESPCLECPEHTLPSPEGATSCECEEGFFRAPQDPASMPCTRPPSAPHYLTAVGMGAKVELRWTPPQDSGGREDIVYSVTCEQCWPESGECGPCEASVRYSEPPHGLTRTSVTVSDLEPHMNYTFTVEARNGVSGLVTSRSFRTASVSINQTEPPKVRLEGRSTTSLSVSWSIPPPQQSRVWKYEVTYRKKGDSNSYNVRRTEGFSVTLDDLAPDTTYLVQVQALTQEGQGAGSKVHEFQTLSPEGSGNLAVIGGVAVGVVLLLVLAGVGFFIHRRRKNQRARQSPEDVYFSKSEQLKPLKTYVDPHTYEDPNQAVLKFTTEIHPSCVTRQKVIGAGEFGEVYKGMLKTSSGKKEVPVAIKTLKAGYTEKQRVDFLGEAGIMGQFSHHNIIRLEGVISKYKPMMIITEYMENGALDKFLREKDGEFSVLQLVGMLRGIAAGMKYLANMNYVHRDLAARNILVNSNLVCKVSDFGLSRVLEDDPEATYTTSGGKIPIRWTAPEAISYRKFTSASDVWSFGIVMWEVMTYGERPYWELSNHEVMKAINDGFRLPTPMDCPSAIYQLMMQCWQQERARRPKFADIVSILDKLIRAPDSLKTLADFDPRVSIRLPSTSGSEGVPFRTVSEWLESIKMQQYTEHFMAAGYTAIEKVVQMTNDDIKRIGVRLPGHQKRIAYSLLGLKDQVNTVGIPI
Experimental: Kinase activity and compound inhibition are investigated using one or more of the three assay formats described below. The ATP concentrations for each assay are selected to be close to the Michaelis-Menten constant (KM) for each individual kinase. Dose-response experiments are performed at 10 different inhibitor concentrations in a 384-well plate format. The data are fitted to the following four-parameter equation: Y=Min+(Max−Min)/(1+(X/IC50)^H) where Y is the observed signal, X is the inhibitor concentration, Min is the background signal in the absence of enzyme (0% enzyme activity), Max is the signal in the absence of inhibitor (100% enzyme activity), IC50 is the inhibitor concentration at 50% enzyme inhibition and H represents the empirical Hill's slope to measure the cooperativity. Typically H is close to unity. ^33P Phosphoryl Transfer Assay:
Greiner 384-well white, clear bottom, high binding plates are coated with 2 μg/well of protein or peptide substrate in a 50 μL volume overnight at ambient temperature. The coating buffer typically contains 40 μg/mL substrate, 22.5 mM Na2CO3, 27.5 mM NaHCO3, 150 mM NaCl and 3 mM NaN3. The coating solution is aspirated and the plates are washed once with 50 μL of assay buffer and padded dry. Subsequently compounds and enzymes are mixed with γ^33P-ATP (3.3 μCi/nmol) in a total volume of 20 uL in suitable assay buffers. The mixture is incubated at ambient temperature for 1.5-2.5 hrs and terminated by aspiration using a Molecular Devices EMBLA 96-head plate washer. The plates are subsequently washed 6-12 times with PBST or TBS buffer. Scintillation fluid (50 μl/well) is then added, the plates are sealed and activity assessed by liquid scintillation spectrometry using a Perkin Elmer MicroBeta TriLux.
In the LCCA assays, kinase activity is measured as the percent ATP consumed following the kinase reaction using luciferase-luciferin-coupled chemiluminescence. Greiner 384-well white, clear bottom, medium binding plates are used for LCCA. Briefly, the kinase reaction is initiated by mixing compounds, ATP and kinase in a 20 uL volume. The mixture is incubated at ambient temperature for 2-4 hrs. At the end of the kinase reaction, a 20 uL luciferase-luciferin mix is added and the chemiluminescent signal is read using a Wallac Victor^2 reader. The luciferase-luciferin mix consists of 50 mM HEPES, pH 7.8, 8.5 ug/mL oxalic acid (pH 7.8), 5 (or 50) mM DTT, 0.4% Triton X-100, 0.25 mg/mL coenzyme A, 63 uM AMP, 28 ug/mL luciferin and 40,000 units of light/mL luciferase. For the LCCA assays, total ATP consumption has been standardized to 25-45% and the IC50 values correlates well with those determined by radiometric assays.
AlphaScreen technology is a proximity assay which utilizes the increase in fluorescent signal when donor and acceptor beads are close in proximity. Biotinylated poly(Glu,Tyr) 4:1 is used as the kinase substrate, in conjunction with streptavidin-coated donor beads and anti-phosphortyrosine antibody PY100-coated acceptor beads. Upon phosphorylation, the peptide substrate can bind to both donor and acceptor beads giving rise to an increase in fluorescence. Compounds, ATP, biotinylated poly(Glu, Tyr) and kinases are mixed in a volume of 20 uL for 1 hr at ambient temperature using Greiner 384-well white clear bottom medium binding plates. Following incubation a 10 uL solution containing […] AlphaScreen beads, 75 mM Hepes, pH 7.4, 300 mM NaCl, 120 mM EDTA, 0.3% BSA and 0.03% Tween-20 is added to each well. After 2-16 hr incubation of the beads, plates are read in a Perkin Elmer AlphaQuest reader. The IC50 values correlates well with those of radiometric assays.

## NC(=O)c1nc(-c2cccc3ccccc23)cnc1N [Example 2, 3-Amino-6-naphthalen-1-ylpyrazine-2-carboxamide]
[1]
  IC50: < 0.05 µM
[2]
  IC50: ≥ 10 µM
